“Also recorded” adds a separate entry of the source. Positions of bridges follow the written chain, without caps; N, C: chain ends. Non-standard residues stand in square brackets, D forms with d. No end group written: not given here. Nle = CCCC[C@H](N)C(=O)O; dDap = NC[C@@H](N)C(=O)O; Dap = NC[C@H](N)C(=O)O; Nal = naphthylalanine
Columns and labels:
TNFα = TNFα secretion in IMG microglial cells after LPS (ELISA); assay type: cell-based; conditions: for activity in reducing TNFα activation: A1-A15 screen, 50 or 100 μg/ml, FIG. 5; for activity in reducing TNFα activation / activity in reducing TNFα: LPS 100 ng/ml 24 hours; for activity in reducing TNFα: FIG. 6A/7, up to 50 μg/mL, versus SP163M, SA7; for EC50 TNFα: IMG microglial cells, LPS 100 ng/ml, 24 hours
Method: In the NFκB reporter cells, the NFκB inducible Secreted Embryonic Alkaline Phosphatase (SEAP) was measured in the supernatant. TNFα secretion in the supernatant was measured via ELISA.
(§1) Various SERPIN peptide derivatives were screened in vitro for their ability to reduce TNFα and NFκB secretion via LRP-1 activation. The NFκB reporter cells (THP1-XBlue-MD2-CD14 cells) were treated with each peptide derivative at various concentrations, up to 100 μg/ml before being insulted with LPS (5 ng/ml) and incubated overnight. The NFκB inducible Secreted Embryonic Alkaline Phosphatase (SEAP) was measured in the supernatant and read for absorbance. IMG Microglial cells were treated with each peptide derivative at various concentrations, up to 100 μg/ml before LPS (100 ng/ml) stimulation for 24 hours. An ELISA was used to measure TNFα in the supernatant ([…]).

NFκB = NFκB reporter assay (SEAP) in THP1-XBlue-MD2-CD14 cells after LPS; assay type: cell-based; conditions: for activity in reducing NFκB activation: LPS 5 ng/ml 24 hours; for EC50 NFκB: NFκB reporter cells, LPS 5 ng/ml; for NFκB inhibition activity: 50 μg/ml, LPS 5 ng/ml overnight, compared to SP163M (and SP22)
Method: The NFκB inducible Secreted Embryonic Alkaline Phosphatase (SEAP) was measured in the supernatant and read for absorbance.
as §1

IL-6 = IL-6 secretion in IMG microglial cells after LPS (ELISA); assay type: cell-based; conditions: for EC50 IL-6: IMG microglial cells, LPS 100 ng/ml, 24 hours
[1] = tested on: NFκB reporter cells or IMG microglial cells; test: Cytotoxicity assay (CellTiter-Glo Luminescent Cell Viability Assay); conditions: up to 12.5 μg/ml, 24 hours, NFκB reporter cells and IMG microglial cells, FIG. 11
Method: IMG cells were treated with peptide derivatives at concentrations at or exceeding those tested for the activity assays (FIGS. 5-7) for 24 hours.

[2] = tested on: OVA induced allergic asthma; test: OVA induced allergic asthma mouse model, lung homogenate; assay type: in vivo, mice
Description: Infiltration of immune cells into the lung likely account for the increase in total protein levels in the lung.

[3] = target: low-density lipoprotein receptor related protein-1 (LRP-1) on IMG microglial cells (UniProt Q91ZX7 20-4545, limits assumed); test: cell-based or functional assay
[4] = target: low-density lipoprotein receptor related protein-1 (LRP-1) on THP1-XBlue-MD2-CD14 NFκB reporter cells (UniProt Q07954 20-4544); test: cell-based or functional assay
serine protease TMPRSS2 = serine protease TMPRSS2 (UniProt O15393 1-492, limits assumed); test: cell-based or functional assay
[5] = FIG. 6B/7, up to 50 μg/mL, versus SP163M, SA7

Chain of low-density lipoprotein receptor related protein-1 (LRP-1) on IMG microglial cells (Q91ZX7 20-4545 limits assumed): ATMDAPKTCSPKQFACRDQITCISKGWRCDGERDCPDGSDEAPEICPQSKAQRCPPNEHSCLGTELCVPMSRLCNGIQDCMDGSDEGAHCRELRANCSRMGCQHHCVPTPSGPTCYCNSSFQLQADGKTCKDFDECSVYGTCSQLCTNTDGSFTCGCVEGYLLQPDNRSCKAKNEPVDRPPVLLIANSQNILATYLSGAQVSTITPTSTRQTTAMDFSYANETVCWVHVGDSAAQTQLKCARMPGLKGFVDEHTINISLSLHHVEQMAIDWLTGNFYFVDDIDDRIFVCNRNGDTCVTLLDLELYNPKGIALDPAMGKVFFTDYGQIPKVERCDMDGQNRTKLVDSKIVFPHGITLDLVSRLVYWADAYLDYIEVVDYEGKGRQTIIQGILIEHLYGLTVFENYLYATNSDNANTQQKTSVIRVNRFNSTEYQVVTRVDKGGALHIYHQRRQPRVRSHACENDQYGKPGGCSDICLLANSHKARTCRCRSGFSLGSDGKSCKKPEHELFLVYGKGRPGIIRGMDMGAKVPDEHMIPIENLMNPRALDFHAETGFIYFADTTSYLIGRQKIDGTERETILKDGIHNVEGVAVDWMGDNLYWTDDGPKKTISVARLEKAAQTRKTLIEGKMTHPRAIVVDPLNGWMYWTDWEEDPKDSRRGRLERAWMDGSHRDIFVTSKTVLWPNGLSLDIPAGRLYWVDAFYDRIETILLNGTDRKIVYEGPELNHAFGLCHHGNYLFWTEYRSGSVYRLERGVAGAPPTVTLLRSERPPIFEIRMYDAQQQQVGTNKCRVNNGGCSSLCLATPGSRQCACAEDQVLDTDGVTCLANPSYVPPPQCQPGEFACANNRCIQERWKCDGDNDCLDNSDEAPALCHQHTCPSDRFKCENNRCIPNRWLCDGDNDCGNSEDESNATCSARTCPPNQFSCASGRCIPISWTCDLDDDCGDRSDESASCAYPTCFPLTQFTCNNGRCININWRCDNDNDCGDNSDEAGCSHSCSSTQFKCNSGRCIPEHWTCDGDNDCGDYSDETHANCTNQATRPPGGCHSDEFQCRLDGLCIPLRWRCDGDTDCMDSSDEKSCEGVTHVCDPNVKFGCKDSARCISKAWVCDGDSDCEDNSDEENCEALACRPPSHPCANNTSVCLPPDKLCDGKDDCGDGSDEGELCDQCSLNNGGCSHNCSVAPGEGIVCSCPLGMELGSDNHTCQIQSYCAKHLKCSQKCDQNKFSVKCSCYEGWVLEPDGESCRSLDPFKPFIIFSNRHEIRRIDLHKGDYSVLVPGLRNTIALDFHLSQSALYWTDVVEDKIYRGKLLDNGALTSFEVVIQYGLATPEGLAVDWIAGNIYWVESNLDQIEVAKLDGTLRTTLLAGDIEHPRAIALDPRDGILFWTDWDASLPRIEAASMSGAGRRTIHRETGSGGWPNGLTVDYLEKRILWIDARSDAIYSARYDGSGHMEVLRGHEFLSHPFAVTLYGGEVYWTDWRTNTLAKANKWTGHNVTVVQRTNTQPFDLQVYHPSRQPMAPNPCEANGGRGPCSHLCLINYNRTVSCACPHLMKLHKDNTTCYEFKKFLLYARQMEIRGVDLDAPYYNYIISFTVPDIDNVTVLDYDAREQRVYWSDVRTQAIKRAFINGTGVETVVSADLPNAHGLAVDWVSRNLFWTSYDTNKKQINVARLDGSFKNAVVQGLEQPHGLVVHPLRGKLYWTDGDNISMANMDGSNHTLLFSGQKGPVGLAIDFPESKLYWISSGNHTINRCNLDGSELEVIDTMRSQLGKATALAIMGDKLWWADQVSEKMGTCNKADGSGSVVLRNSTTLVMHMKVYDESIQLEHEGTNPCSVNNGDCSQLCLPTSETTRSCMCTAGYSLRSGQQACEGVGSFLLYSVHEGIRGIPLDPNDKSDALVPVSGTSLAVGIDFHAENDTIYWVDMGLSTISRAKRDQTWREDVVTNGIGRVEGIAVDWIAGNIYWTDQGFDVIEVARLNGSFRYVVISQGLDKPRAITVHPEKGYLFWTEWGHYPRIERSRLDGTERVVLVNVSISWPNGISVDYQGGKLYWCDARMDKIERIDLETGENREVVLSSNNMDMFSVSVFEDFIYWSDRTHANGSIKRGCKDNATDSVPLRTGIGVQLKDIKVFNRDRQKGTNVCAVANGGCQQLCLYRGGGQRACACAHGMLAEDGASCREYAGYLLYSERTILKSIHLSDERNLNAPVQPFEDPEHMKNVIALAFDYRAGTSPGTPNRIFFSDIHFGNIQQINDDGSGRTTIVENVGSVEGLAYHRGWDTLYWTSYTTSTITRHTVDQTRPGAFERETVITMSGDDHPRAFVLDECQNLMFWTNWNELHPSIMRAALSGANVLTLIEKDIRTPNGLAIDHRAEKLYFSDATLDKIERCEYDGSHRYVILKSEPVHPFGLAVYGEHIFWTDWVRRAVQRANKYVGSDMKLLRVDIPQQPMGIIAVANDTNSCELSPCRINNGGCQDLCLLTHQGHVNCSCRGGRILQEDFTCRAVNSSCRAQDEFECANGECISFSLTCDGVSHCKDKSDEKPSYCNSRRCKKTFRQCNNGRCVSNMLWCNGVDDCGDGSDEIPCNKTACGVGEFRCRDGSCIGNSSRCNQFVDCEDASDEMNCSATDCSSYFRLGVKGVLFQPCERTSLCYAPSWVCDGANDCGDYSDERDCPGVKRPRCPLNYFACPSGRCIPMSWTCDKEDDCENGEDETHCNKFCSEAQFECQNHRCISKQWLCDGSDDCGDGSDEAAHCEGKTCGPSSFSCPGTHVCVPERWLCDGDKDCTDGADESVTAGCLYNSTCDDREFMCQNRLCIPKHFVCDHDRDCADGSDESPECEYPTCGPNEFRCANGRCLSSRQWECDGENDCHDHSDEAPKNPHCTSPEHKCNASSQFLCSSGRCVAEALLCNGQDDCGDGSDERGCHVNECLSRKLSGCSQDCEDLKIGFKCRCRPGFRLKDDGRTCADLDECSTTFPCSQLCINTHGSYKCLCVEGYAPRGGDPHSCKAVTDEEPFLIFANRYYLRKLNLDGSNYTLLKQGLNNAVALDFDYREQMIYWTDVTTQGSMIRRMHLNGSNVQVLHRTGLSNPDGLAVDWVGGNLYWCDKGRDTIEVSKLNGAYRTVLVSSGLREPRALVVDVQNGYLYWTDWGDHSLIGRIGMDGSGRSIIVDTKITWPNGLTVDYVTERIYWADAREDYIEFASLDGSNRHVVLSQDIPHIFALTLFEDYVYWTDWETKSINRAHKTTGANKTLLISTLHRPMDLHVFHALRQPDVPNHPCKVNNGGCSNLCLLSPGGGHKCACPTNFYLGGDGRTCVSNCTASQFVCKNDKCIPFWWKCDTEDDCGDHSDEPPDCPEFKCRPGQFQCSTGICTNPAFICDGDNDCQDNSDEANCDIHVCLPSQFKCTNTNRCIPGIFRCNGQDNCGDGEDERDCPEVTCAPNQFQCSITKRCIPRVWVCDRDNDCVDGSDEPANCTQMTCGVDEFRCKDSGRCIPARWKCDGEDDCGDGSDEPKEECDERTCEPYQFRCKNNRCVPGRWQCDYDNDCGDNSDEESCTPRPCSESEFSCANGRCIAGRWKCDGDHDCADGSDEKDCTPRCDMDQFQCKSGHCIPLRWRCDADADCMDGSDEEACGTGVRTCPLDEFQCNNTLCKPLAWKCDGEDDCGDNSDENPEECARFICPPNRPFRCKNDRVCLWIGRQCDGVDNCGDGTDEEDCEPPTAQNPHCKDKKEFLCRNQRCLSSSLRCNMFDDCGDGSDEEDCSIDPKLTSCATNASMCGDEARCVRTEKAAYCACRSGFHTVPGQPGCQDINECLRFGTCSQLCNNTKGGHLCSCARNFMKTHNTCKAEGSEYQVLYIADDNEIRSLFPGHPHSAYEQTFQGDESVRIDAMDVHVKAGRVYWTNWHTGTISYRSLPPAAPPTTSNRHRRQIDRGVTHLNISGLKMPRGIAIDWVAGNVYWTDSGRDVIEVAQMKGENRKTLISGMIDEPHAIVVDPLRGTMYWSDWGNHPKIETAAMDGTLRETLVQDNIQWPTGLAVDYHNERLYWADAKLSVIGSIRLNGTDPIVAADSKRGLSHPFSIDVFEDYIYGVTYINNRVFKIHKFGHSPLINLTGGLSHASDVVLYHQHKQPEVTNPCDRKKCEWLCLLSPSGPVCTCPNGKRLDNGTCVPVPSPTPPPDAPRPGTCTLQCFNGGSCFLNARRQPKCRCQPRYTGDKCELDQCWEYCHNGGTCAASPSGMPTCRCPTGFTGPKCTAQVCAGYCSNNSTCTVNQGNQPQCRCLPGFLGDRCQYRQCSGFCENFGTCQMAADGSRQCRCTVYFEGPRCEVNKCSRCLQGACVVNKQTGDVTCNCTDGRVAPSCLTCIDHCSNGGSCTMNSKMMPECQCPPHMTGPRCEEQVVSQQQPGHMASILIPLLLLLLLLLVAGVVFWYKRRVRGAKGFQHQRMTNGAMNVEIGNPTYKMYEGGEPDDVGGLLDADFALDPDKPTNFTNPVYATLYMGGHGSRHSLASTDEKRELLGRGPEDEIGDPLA
Chain of serine protease TMPRSS2 (O15393 whole entry): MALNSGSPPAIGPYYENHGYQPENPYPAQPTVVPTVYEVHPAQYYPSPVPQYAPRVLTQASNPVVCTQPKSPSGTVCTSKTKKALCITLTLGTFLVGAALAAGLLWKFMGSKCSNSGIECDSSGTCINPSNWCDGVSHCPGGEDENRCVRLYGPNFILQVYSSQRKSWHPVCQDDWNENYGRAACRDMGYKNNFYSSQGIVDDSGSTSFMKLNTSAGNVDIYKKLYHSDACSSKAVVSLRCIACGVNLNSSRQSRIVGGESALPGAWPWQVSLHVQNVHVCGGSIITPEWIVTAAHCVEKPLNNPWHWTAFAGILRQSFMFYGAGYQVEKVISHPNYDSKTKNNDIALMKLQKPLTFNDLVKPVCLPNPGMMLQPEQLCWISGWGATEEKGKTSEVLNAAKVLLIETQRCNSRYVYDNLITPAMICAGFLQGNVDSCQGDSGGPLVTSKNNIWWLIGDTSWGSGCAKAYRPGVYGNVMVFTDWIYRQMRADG

For “Ac- RRRCFV[Nal]L[Nle]C (cyclic) [Peptide A5]”, the “activity in reducing TNFα activation” value (TNFα) was “improved activities in reducing TNFα activation”.

“Ac- RRR[Dap]FT[Nal]L[Nle]D (cyclic) [Peptide A2-1]” was tested, and the “activity in reducing NFκB activation” value (NFκB; [5]) was “superior activities”, the “EC50 NFκB” value (NFκB) was 5.77 µg/mL and the “activity in reducing TNFα” value (TNFα) was “superior activities in reducing TNFα”. The “EC50 TNFα” value (TNFα) was 12.99 µg/mL and the “EC50 IL-6” value (IL-6) was 9.644 µg/mL.

Ac-EEEVKFNKPFVFL[Nle]EEE [SA5] was tested, and the NFκB inhibition activity (NFκB) was “minimal NFκB inhibition activity”.

For Ac-HHHPFVFLMHHH [SA1], the NFκB inhibition activity (NFκB) was “minimal NFκB inhibition activity”.

With Ac-HHHPFVFL[Nle]HHH [SA2] the NFκB inhibition activity (NFκB) was “minimal NFκB inhibition activity”.

For Ac-KKKPFVFL[Nle]KKK [SA4], the NFκB inhibition activity (NFκB) was “minimal NFκB inhibition activity”.

With “Ac-RRRCFTFL[Nle]C (also: cyclic (positions not given here)) [Peptide A8]” the “activity in reducing TNFα activation” value (TNFα) was “improved activities in reducing TNFα activation”.

With “Ac-RRRCPFVFL[Nle]CRRR (cysteine pairing not given here) [SA6]” the NFκB inhibition activity (NFκB) was “improved activity in NFκB inhibition”.

With “Ac-RRRDFVFL[Nle][Dap] (also: cyclic (positions not given here)) [Peptide A10]” the “activity in reducing TNFα activation” value (TNFα) was “improved activities in reducing TNFα activation”.

In the case of Ac-RRRPFVFL[Nle]RRR [SA3], the NFκB inhibition activity (NFκB) is reported as “improved activity in NFκB inhibition; also recorded: more effective in reducing NFκB activation”.

For “HN- RRRAT[Nal]L[NIe]D (cyclic) [Peptide A3-14]”, the “activity in reducing NFκB activation” value (NFκB; FIG. 9, 1.56 to 12.5 μg/ml) was “superior activities in reducing NFκB activation”, the “EC50 NFκB” value (NFκB) was 3.775 µg/mL and the cytotoxic effects [1] was “no cytotoxic effects”. The “EC50 TNFα” value (TNFα) was 6 µg/mL, the “activity in reducing IL-6 secretion” value (IL-6; FIG. 10, up to 12.5 μg/ml, LPS 100 ng/ml 24 hours) was “superior activities in reducing IL-6 secretion” and the “EC50 IL-6” value (IL-6) was 0.605 µg/mL.

In the case of “HN- RRRFTWL[dS]D (cyclic) (not fully specified (bridges); printed as HN- RRRFTWL[dS]D (cyclic); also: cyclic, mode of cyclisation not given here) [Peptide A3-16]”, the cytotoxic effects [1] is reported as “no cytotoxic effects”.

“HN- RRRFT[Nal]L[dS]D (cyclic) [Peptide A3-15]” was tested, and the cytotoxic effects [1] was “no cytotoxic effects”.

In the case of “HN- RRRFT[Nal]]LD (cyclic) (cyclo(RRRFT[Nal]LD)) [Peptide A3-1]”, the cytotoxic effects [1] is reported as “no cytotoxic effects”.

In the case of “HN- RRRFVFL[dDap]D (cyclic) (not fully specified (bridges); printed as HN- RRRFVFL[dDap]D (cyclic); also: cyclic, ring not given here) [Peptide A3-10]”, the “activity in reducing NFκB activation” value (NFκB; FIG. 9, 1.56 to 12.5 μg/ml) is reported as “superior activities in reducing NFκB activation”.

In the case of “HN- [rK]RRFT[Nal]]LD (cyclic) ([rK]RRFT[Nal]LD; lactam 1-8) [Peptide A3-2]”, the cytotoxic effects [1] is reported as “no cytotoxic effects”.

“HN-RRRFT[Nal]L[Nle]D (cyclic) [Peptide A2-2]” was tested, and the “activity in reducing NFκB activation” value (NFκB; [5]) was “superior activities” and the “activity in reducing TNFα” value (TNFα) was “superior activities in reducing TNFα”.

With “HN-RRRFVFLD (cyclic) (not fully specified; cyclised or stapled) [Peptide A2-4]” the “activity in reducing NFκB activation” value (NFκB; [5]) was “superior activities” and the “activity in reducing TNFα” value (TNFα) was “superior activities in reducing TNFα”.

HN-RRRFVFL[Nle]D (cyclic) [Peptide A15] was tested, and the “EC50 NFκB” value (NFκB) was 5.053 µg/mL, the “activity in reducing TNFα activation” value (TNFα) was “improved activities in reducing TNFα activation” and the “EC50 TNFα” value (TNFα) was 36.75 µg/mL. The “EC50 IL-6” value (IL-6) was 32.39 µg/mL.

With “HN-RRRFVFL[dS]D (cyclic) (RRRFVFLSD; not fully specified; D-residues; cyclised or stapled) [Peptide A2-5]” the “activity in reducing NFκB activation” value (NFκB; [5]) was “superior activities”, the “activity in reducing TNFα” value (TNFα) was “superior activities in reducing TNFα” and the “TSLP level in lung homogenate” value ([2]; compared to ova-induced vehicle treated mice, p=0.026) was “significantly lower levels of TSLP”. The “total protein levels in the lung” value ([2]; compared to vehicle treated animals, p<0.005) was “significantly decreased” and the “TH-2 mediated cytokines IL-5, IL-4 and IL-13 in lung tissue” value ([2]; compared with vehicle treated mice) was “reduction of TH-2 mediated cytokines IL-5, IL-4 and IL-13”.

With Ac-RRRKFT[Nal]LD (lactam 4-9) [SERPIN peptide derivative A3-7, Ac-RRRKFT[Nal]LD (cyclic)] the “EC50, IL-6 (IMG microglial cells, LPS, ELISA)” value [3] was 3.65 µg/mL and the “EC50, NFκB (reduction of NFκB activation, SEAP reporter cells, LPS)” value [4] was 22.4 µg/mL.

RRRFVFLAD (not fully specified; cyclic (HN- at the N-terminus (so in the source))) [SERPIN peptide derivative A2-3, HN-RRRFVFLAD (cyclic)] was tested, and the “EC50, IL-6 (IMG microglial cells, LPS, ELISA)” value [3] was 3.38 µg/mL, the “EC50, TNFα (IMG microglial cells, LPS, ELISA)” value (from here on “EC50, TNFα”) [3] was 11.8 µg/mL and the “EC50, NFκB (reduction of NFκB activation, SEAP reporter cells, LPS)” value [4] was 2.65 µg/mL.

In the case of RRRFVFLD (not fully specified; cyclic (HN- at the N-terminus (so in the source))) [SERPIN peptide derivative A2-4, HN-RRRFVFLD (cyclic)], the “EC50, IL-6 (IMG microglial cells, LPS, ELISA)” value [3] is reported as 11.3 µg/mL, the “EC50, TNFα” value [3] is reported as 12.5 µg/mL and the “EC50, NFκB (reduction of NFκB activation, SEAP reporter cells, LPS)” value [4] is reported as 5.25 µg/mL.

B1: SERPIN peptide derivative A3-10, HN-RRRFVFL[dDap]D (cyclic) (peptide)
peptide: RRRFVFLXD
modifications: not fully specified; D-Dap at position 8; cyclic (HN- at the N-terminus (so in the source))
In the case of B1, the “EC50, IL-6 (IMG microglial cells, LPS, ELISA)” value [3] is reported as 58.5 µg/mL, the “EC50, TNFα” value [3] is reported as 34.6 µg/mL and the “EC50, NFκB (reduction of NFκB activation, SEAP reporter cells, LPS)” value [4] is reported as 2.16 µg/mL.

For VKFNKPFVFLMIEQNTK [SERPIN peptide SP16 (VKFNKPFVFLMIEQNTK)], the “EC50, TNFα” value [3] was ~618 µg/mL and the “EC50, NFκB (reduction of NFκB activation, SEAP reporter cells, LPS)” value [4] was 152 µg/mL.

B2: SERPIN peptide derivative A15, HN-RRRFVFL[Nle]D (cyclic) (peptide)
peptide: RRRFVFLXD
modifications: not fully specified; Nle (norleucine) at position 8; cyclic: head-to-tail linker between the amino group of the N-terminal Arg and the side-chain carboxylic acid of the C-terminal Asp, ring closing length 12 C-C bonds
In the case of B2, the “EC50, IL-6 (IMG microglial cells, LPS, ELISA)” value [3] is reported as 32.4 µg/mL, the “EC50, TNFα” value [3] is reported as 36.8 µg/mL and the “EC50, NFκB (reduction of NFκB activation, SEAP reporter cells, LPS)” value [4] is reported as 5.05 µg/mL.

B3: SERPIN peptide derivative A2-5, HN-RRRFVFL[dS]D (cyclic) (peptide)
peptide: RRRFVFLSD
modifications: not fully specified; D-Ser at position 8; cyclic (HN- at the N-terminus (so in the source))
B3 was tested, and the “EC50, IL-6 (IMG microglial cells, LPS, ELISA)” value [3] was 1.4 µg/mL, the “EC50, TNFα” value [3] was 2.39 µg/mL and the “EC50, NFκB (reduction of NFκB activation, SEAP reporter cells, LPS)” value [4] was 1.47 µg/mL.

For Ac-RRRCPFVFL[Nle]C (disulfide 4-11 (inferred)) [SERPIN peptide derivative SA7, Ac-RRRCPFVFL[Nle]C (cyclic)], the “EC50, IL-6 (IMG microglial cells, LPS, ELISA)” value [3] was 318 µg/mL, the “EC50, TNFα” value [3] was 124 µg/mL and the “EC50, NFκB (reduction of NFκB activation, SEAP reporter cells, LPS)” value [4] was 470 µg/mL. For the same molecule, the “IC50, protease TMPRSS2 activity in an overexpressing cell system” value (serine protease TMPRSS2) was 0.083 µg/mL.

In the case of Ac-RRR[Dap]FT[Nal]L[Nle]D [SERPIN peptide derivative A2-1, Ac-RRR[Dap]FT[Nal]L[Nle]D (cyclic)], the “EC50, IL-6 (IMG microglial cells, LPS, ELISA)” value [3] is reported as 9.64 µg/mL, the “EC50, TNFα” value [3] is reported as 13 µg/mL and the “EC50, NFκB (reduction of NFκB activation, SEAP reporter cells, LPS)” value [4] is reported as 5.77 µg/mL.

B4: SERPIN peptide derivative A3-14, HN-RRRAT[Nal]L[Nle]D (cyclic) (peptide)
peptide: RRRAT[Nal]L[Nle]D
modifications: not fully specified (bridges); printed as HN- RRRAT[Nal]L[NIe]D (cyclic); also: cyclic, ring not given here
In the case of B4, the “EC50, IL-6 (IMG microglial cells, LPS, ELISA)” value [3] is reported as 0.605 µg/mL, the “EC50, TNFα” value [3] is reported as 6 µg/mL and the “EC50, NFκB (reduction of NFκB activation, SEAP reporter cells, LPS)” value [4] is reported as 3.77 µg/mL.

From patent US20250353898A1, “SERPIN PEPTIDE DERIVATIVES AND METHODS OF USING THE SAME” (priority 2022, published 2025)
